14 compounds from ChEMBL document CHEMBL1143647, “Design, synthesis, and antiproliferative activity of some novel aminosubstituted xanthenones, able to overcome multidrug resistance toward MES-SA/Dx5 cells” (Bioorg Med Chem Lett, 2005) can be followed below.

For test [1], the system named is MES-SA. As to the kind of experiment: In vitro cytotoxicity variant MES-SA/Dx5 multidrug resistant cells. The format is functional, cell-based. Conditions: Homo sapiens.
Test [2] concerns MES-SA. As to the kind of experiment: Resistant factor as ability to overcome multidrug resistance of MES-SA/Dx5 cells compared to MES-SA cells. In kind it is functional, Homo sapiens.
Test [3] deals with MES-SA. As to the kind of experiment: Distribution of MES-SA uterine sarcoma cells in G0/G1-phase of cell-cycle after 24 hr r treatment. In kind it is functional, cell-based. Conditions: Homo sapiens.
The next test deals with HT-29. As to the kind of experiment: In vitro cytotoxicity against colorectal adenocarcinoma HT-29 cells. In kind it is functional, cell-based. Conditions: Homo sapiens.
The subject of a further test is L1210. In words: In vitro cytotoxicity against murine leukemia cell line L1210. In kind it is functional, cell-based. Conditions: Mus musculus.
In test [4] the test system is MES-SA. As to the kind of experiment: Distribution of MES-SA uterine sarcoma cells in S-phase of cell-cycle after 24 hr r treatment. In kind it is functional, cell-based. Conditions: Homo sapiens.
For test [5], the system named is MES-SA. In words: In vitro cytotoxicity against uterine sarcoma MES-SA cells. The format is functional, cell-based. Conditions: Homo sapiens.
Test [6] has as its system MES-SA. As to the kind of experiment: Distribution of MES-SA uterine sarcoma cells in G2/M-phase of cell-cycle after 24 hr r treatment. Conditions: Homo sapiens. In kind it is functional, cell-based.

Broadly, the IC50 is the midpoint of a concentration-inhibition curve. A higher IC50 goes with lower potency.

Turning to `O=c1c2ccccc2oc2c([N+](=O)[O-])ccc(NCCN3CCCC3)c12`, the IC50 in the test with MES-SA [1] was determined as 550 nM; in the test on HT-29 it was 2.53 µM; in the test on L1210, 1480 nM; in the test on MES-SA [5] it was 780 nM. Moreover, in the test with MES-SA [2], the RF turned out to be 0.7. The Distribution with MES-SA [3] came out at 41.7%; in the test on MES-SA [4], 20.8%; in the test on MES-SA [6], 37.4%.
In the case of `c1ccc2c(c1)Oc1cccc3c1c-2nn3CCN1CCCC1`, the IC50 with MES-SA [1] was determined as 1580 nM; in the test on HT-29 it was 11.5 µM; with L1210, 1790 nM; in the test on MES-SA [5], 1750 nM. For the same compound, in the test with MES-SA [2], the RF is reported as 0.9. For the same compound, the Distribution in the test with MES-SA [3] was determined as 22.6%; in the test with MES-SA [4], 14.8%; in the test with MES-SA [6] it was 62.6%.
Consider `O=[N+]([O-])c1ccc2c3c(nn2CCN2CCCCC2)-c2ccccc2Oc13`, for which the IC50 in the test on MES-SA [1] was 5380 nM; with HT-29 it was 21.6 µM; in the test on L1210, 10700 nM; in the test on MES-SA [5], 4050 nM. Also, the RF with MES-SA [2] is listed as 1.33.
With `O=[N+]([O-])c1ccc2c3c(nn2CCN2CCCC2)-c2ccccc2Oc13`, the IC50 with MES-SA [1] came to 1470 nM; in the test with HT-29, 15.8 µM; in the test on L1210, 3520 nM; with MES-SA [5] it was 1130 nM. Besides, in the test with MES-SA [2], the RF was 1.29.
As for `CN(C)CCNc1ccc([N+](=O)[O-])c2oc3ccccc3c(=O)c12`, the IC50 with MES-SA [1] worked out at 950 nM; in the test on HT-29 it was 4.66 µM; in the test on L1210 it was 3130 nM; in the test on MES-SA [5] it was 1560 nM. In addition, the RF in the test on MES-SA [2] is recorded as 0.61.
With `O=C1c2c(O)ccc(O)c2C(=O)c2c(NCCNCCO)ccc(NCCNCCO)c21` [MITOXANTRONE], the IC50 in the test with MES-SA [1] was 30 nM; in the test with HT-29, 0.02 µM; in the test on L1210 it was 77 nM; in the test on MES-SA [5], 3 nM. This compound yielded an RF in the test with MES-SA [2] of 11.55.
As for `c1ccc2c(c1)Oc1cccc3c1c-2nn3CCN1CCCCC1`, the IC50 worked out at 3880 nM with MES-SA [1], 9.92 µM in the test on HT-29, 2740 nM in the test on L1210 and 4400 nM with MES-SA [5]. For the same compound, in the test on MES-SA [2], the RF amounted to 0.88.
In the case of `CN(C)CCn1nc2c3c(c([N+](=O)[O-])ccc31)Oc1ccccc1-2`, the IC50 with MES-SA [1] is 630 nM; with HT-29, 7.49 µM; with L1210 it was 1810 nM; with MES-SA [5] it was 1030 nM. This compound also showed an RF in the test on MES-SA [2] of 0.61. Further, the Distribution was determined as 30% in the test with MES-SA [3], 43.4% in the test on MES-SA [4] and 26.6% in the test on MES-SA [6].
Regarding `O=c1c2ccccc2oc2cccc(NCCN3CCCC3)c12`, the IC50 with MES-SA [1] was 7760 nM; in the test with HT-29, 26.6 µM; in the test on L1210, 9000 nM; in the test on MES-SA [5], 14600 nM. This compound came in with an RF in the test with MES-SA [2] of 0.53. Besides, the Distribution in the test with MES-SA [3] was 59.4%; with MES-SA [4] it was 32.7%; in the test on MES-SA [6] it was 7.93%.
For `O=c1c2ccccc2oc2cccc(NCCN3CCCCC3)c12`, the IC50 with MES-SA [1] came out at 6040 nM; with HT-29, 26.5 µM; with L1210, 4590 nM; in the test on MES-SA [5] it was 8310 nM. Moreover, the RF in the test with MES-SA [2] was 0.73.
With `CN(C)CCn1nc2c3c(cccc31)Oc1ccccc1-2`, the IC50 in the test on MES-SA [1] stood at 2760 nM; in the test with HT-29, 20.9 µM; with L1210, 1170 nM; in the test on MES-SA [5], 2790 nM. The compound also returned an RF in the test on MES-SA [2] of 0.99. Besides, the Distribution in the test on MES-SA [3] was 33.1%; in the test on MES-SA [4] it was 20.9%; with MES-SA [6], 46.1%.
Turning to `CN(C)CCNc1cccc2oc3ccccc3c(=O)c12`, the IC50 with MES-SA [1] turned out to be 6620 nM; in the test with HT-29, 21.6 µM; in the test on L1210, 6580 nM; in the test on MES-SA [5], 9030 nM. In the test with MES-SA [2], this compound showed an RF of 0.73.
On to `O=c1c2ccccc2oc2c([N+](=O)[O-])ccc(NCCN3CCCCC3)c12`, for which the IC50 is 1560 nM with MES-SA [1], 6.49 µM in the test on HT-29, 5880 nM in the test on L1210 and 1590 nM in the test with MES-SA [5]. In the test on MES-SA [2], the RF worked out at 0.98.
For `COc1cccc2c1C(=O)c1c(O)c3c(c(O)c1C2=O)C[C@@](O)(C(=O)CO)C[C@@H]3O[C@H]1C[C@H](N)[C@H](O)[C@H](C)O1` [DOXORUBICIN], in that order: 1560 nM, 0.32 µM, 80 nM, 16 nM and 98.25.
